Where two headings read alike, the source gives them in different places.
Legend:
LIN28–let-7 interaction [1] = molecular target: T1, LIN28–let-7 interaction (Homo sapiens, UniProt Q9H9Z2); experiment: Fluorescence polarization (FP) assay, LIN28A (residues 16–187) and FAM-labeled preE-let-7f-1; type: binding; conditions: for IC50: Table 1, quadruplicate, eight concentrations, read-out: IC50, LIN28–let-7 inhibitory activity; for FP, Average (mP): raw data Table S3, four replicates
T1 construct: Purified LIN28A (residues 16–187) was incubated at a concentration of 200 nM; His-tag (cleaved yes); made in house; host or cells: Escherichia coli BL21(DE3)
T1 sequence (Q9H9Z2 16-187): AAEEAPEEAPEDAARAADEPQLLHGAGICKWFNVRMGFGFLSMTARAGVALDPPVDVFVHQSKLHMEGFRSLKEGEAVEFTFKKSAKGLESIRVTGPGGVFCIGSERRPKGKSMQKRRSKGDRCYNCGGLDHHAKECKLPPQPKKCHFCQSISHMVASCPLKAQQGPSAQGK

LIN28–let-7 interaction [2] = molecular target: T1, LIN28–let-7 interaction; experiment: as above; type: binding
Method: Protein expression and purification.
19 vector and overexpressed in Escherichia coli BL21(DE3). The culture was incubated at 37 °C until
the absorbance at 600 nm (OD600) reached 0.5–0.7. IPTG was added to a final concentration of
300 µM, and overnight induction was performed at 18 °C. Cells were harvested by centrifugation.
The bacterial pellet was resuspended in lysis buffer (50 mM NaH2PO4, pH 7.5, 300 mM NaCl,
0.1 mM PMSF) and lysed using a Microfluidizer (Microfluidics) . A fresh portion of 0.1 mM PMSF
and Triton X-100 (1% final concentration) were added. The lysate was cleared by ultra centrifugation
at 30000 xg and 4 °C for 1 h. The protein purification was performed using immobilized nickel
300 mM NaCl and 5 % glycerol. Gradient elution was performed with a maximum of 0.5 M imidazole.
Subsequently, the affinity tag was cleaved using His6 -TEV-protease and the protease and unspecific
binders were eliminated by a second nickel affinity chromatography. After protein concentration
LIN28A containing fractions were concentrated and applied to a High Load Superdex 75 pg 16/600
column (GE Healthcare) with gel-filtration buffer (30 mM NaH2PO4, pH 7.5, 50 mM NaCl, 5%
glycerol, 2 mM β-ME). The purified protein was concentrated and stored at -80 °C until further
Fluorescence polarization. The fluorescence polarization assay was performed in black low volume
IC50 measurements were performed with three technical
minutes with compound concentrations ranging from 0.3 nM to 100 µM in FP assay buffer (20 mM
Tris, pH 7, 100 mM NaCl, 5 mM MgCl2, 2 mM glutathione (reduced), 0.1 % NP-40). Subsequently,
FAM-labeled preE-let-7f-1 (mus musculus) ([…]-
FAM, synthesized by IDT) was added to a final concentration of 2 nM. Fluorescence polarization
was detected after incubation at room temperature using a TECAN Spark plate reader. Half maximal
inhibitory concentrations (IC50) were determined using GraphPad Prism 7. […]

[3] = starting from 30 μM, extrapolated based on the observed IC50 curves
[4] = starting from a maximum concentration of 60 μM
[5] = starting from a maximum of 60 μM, extrapolated based on the observed IC50 curves
[6] = text and figures, C-labels = library sample, PH-labels = in-house resynthesized, read-out: IC50 in the FP assay

IC50 (LIN28–let-7 interaction [1]; [3]) [µM] | FP, Average (mP) (LIN28–let-7 interaction [1]; 0.041 μM compound) | FP, Average (mP) (LIN28–let-7 interaction [1]; 0.123 μM compound) | FP, Average (mP) (LIN28–let-7 interaction [1]; 0.368 μM compound) | FP, Average (mP) (LIN28–let-7 interaction [1]; 1.103 μM compound) | FP, Average (mP) (LIN28–let-7 interaction [1]; 3.125 μM compound) | FP, Average (mP) (LIN28–let-7 interaction [1]; 9.375 μM compound) | FP, Average (mP) (LIN28–let-7 interaction [1]; 29.688 μM compound) | FP, Average (mP) (LIN28–let-7 interaction [1]; 59.375 μM compound) | Compound | also measured
 | 110.50 | 109.50 | 109.75 | 98.88 | 79.00 | 55.18 | 37.25 | 33.68 | O=C(C1=C(O)C(=O)N(c2ccc(O)c(C(=O)O)c2)C1c1ccc(-c2nccs2)cc1)c1ccco1 (stereo not shown) [PH-43] | IC50 (LIN28–let-7 interaction [1]; [4]): 5 µM
 | 115.25 | 112.75 | 116.50 | 109.50 | 110.25 | 104.00 | 104.65 | 93.48 | O=C(C1=C(O)C(=O)N(c2ccc(O)cc2)C1c1ccc(-c2nccs2)cc1)c1ccc(Br)cc1 (stereo not shown) [PH-35] | IC50 (LIN28–let-7 interaction [1]; [5]): > 100 µM
 | 115.00 | 116.25 | 113.50 | 112.00 | 104.83 | 108.50 | 96.03 | 79.35 | O=C(O)c1ccc(C2C(C(=O)c3ccccc3)=C(O)C(=O)N2c2ccc(O)cc2)cc1 (stereo not shown) [PH-36] | IC50 (LIN28–let-7 interaction [1]; [5]): > 100 µM; activity in the FP assay (LIN28–let-7 interaction [2]): inactive
 | 110.75 | 116.25 | 115.75 | 116.25 | 107.00 | 111.25 | 107.25 | 98.68 | O=C(C1=C(O)C(=O)N(c2ccc(C(=O)O)c(O)c2)C1c1ccc(-c2nccs2)cc1)c1ccc(Br)cc1 (stereo not shown) [PH-30] | IC50 (LIN28–let-7 interaction [1]; [5]): > 100 µM
 | 96.70 | 118.00 | 115.00 | 107.75 | 92.95 | 82.98 | 63.53 | 54.00 | COc1ccc(C(=O)C2=C(O)C(=O)N(c3ccc(O)c(C(=O)O)c3)C2c2ccc(-c3nccs3)cc2)cc1OC (stereo not shown) [PH-44] | IC50 (LIN28–let-7 interaction [1]; [4]): 12 µM
 | 113.25 | 106.48 | 115.75 | 111.25 | 111.50 | 95.58 | 86.53 | 71.50 | O=C(C1=C(O)C(=O)N(c2ccc(O)c([N+](=O)[O-])c2)C1c1ccc(-c2nccs2)cc1)c1ccccc1 (stereo not shown) [PH-37] | IC50 (LIN28–let-7 interaction [1]; [4]): 41 µM
 | 113.00 | 113.25 | 117.75 | 113.25 | 101.00 | 86.53 | 50.30 | 49.00 | O=C(O)c1ccc(C2C(C(=O)c3ccccc3)=C(O)C(=O)N2c2ccc(C(=O)O)c(O)c2)cc1 (stereo not shown) [PH-38] | IC50 (LIN28–let-7 interaction [1]; [4]): 16 µM

Further lines, the molecule ahead of its results:

Compound | IC50 (LIN28–let-7 interaction [1]; [3]) [µM] | FP, Average (mP) (LIN28–let-7 interaction [1]; 0.041 μM compound) | FP, Average (mP) (LIN28–let-7 interaction [1]; 0.123 μM compound) | FP, Average (mP) (LIN28–let-7 interaction [1]; 0.368 μM compound) | FP, Average (mP) (LIN28–let-7 interaction [1]; 1.103 μM compound) | FP, Average (mP) (LIN28–let-7 interaction [1]; 3.125 μM compound) | FP, Average (mP) (LIN28–let-7 interaction [1]; 9.375 μM compound) | FP, Average (mP) (LIN28–let-7 interaction [1]; 29.688 μM compound) | FP, Average (mP) (LIN28–let-7 interaction [1]; 59.375 μM compound) | also measured
COc1ccc(C(=O)C2=C(O)C(=O)N(c3cccc(-c4nnn[nH]4)c3)C2c2ccc(C(=O)O)cc2)cc1 (stereo not shown) [C888] | > 100 |  |  |  |  |  |  |  |  | 
O=C(O)c1ccc(C2C(C(=O)c3ccc(Br)cc3)=C(O)C(=O)N2c2ccc(C(=O)O)cc2)cc1 (stereo not shown) [C895] | > 100 |  |  |  |  |  |  |  |  | 
O=C(O)c1ccc(C2C(C(=O)c3ccccc3)=C(O)C(=O)N2c2cccc(C(=O)O)c2)cc1 (stereo not shown) [C881] | > 100 |  |  |  |  |  |  |  |  | 
COc1ccc(C(=O)C2=C(O)C(=O)N(c3ccc(O)c(C(=O)O)c3)C2c2ccc(C(=O)O)cc2)cc1 (stereo not shown) [C885] | 30 to 40 |  |  |  |  |  |  |  |  | 
O=C(C1=C(O)C(=O)N(c2ccc(O)c(C(=O)O)c2)C1c1ccc(-c2nccs2)cc1)c1ccccc1 (stereo not shown) [C879/PH-34] |  | 117.25 | 110.90 | 115.50 | 113.50 | 89.73 | 88.63 | 73.03 | 53.40 | IC50 (LIN28–let-7 interaction [1]; [4]): 12 µM; IC50 (LIN28–let-7 interaction [2]; [6]): < 30 µM
O=C(O)c1ccc(C2C(C(=O)c3ccc(Br)cc3)=C(O)C(=O)N2c2ccc(O)c(C(=O)O)c2)cc1 (stereo not shown) [C893] | 30 to 40 |  |  |  |  |  |  |  |  | 
O=C(O)c1ccc(C2C(C(=O)c3ccccc3)=C(O)C(=O)N2c2ccc(O)c(C(=O)O)c2)cc1 (stereo not shown) [C880/PH-39] |  | 111.50 | 113.50 | 115.75 | 112.00 | 91.63 | 55.98 | 41.63 | 45.53 | IC50 (LIN28–let-7 interaction [1]; [4]): 6 µM; IC50 (LIN28–let-7 interaction [2]; [6]): < 30 µM
COc1ccc(C(=O)C2=C(O)C(=O)N(c3cccc(-c4nnn[nH]4)c3)C2c2ccc(-c3nccs3)cc2)cc1 (stereo not shown) [C901] | > 100 |  |  |  |  |  |  |  |  | 
COc1ccc(C(=O)C2=C(O)C(=O)N(c3ccc(C(=O)O)cc3)C2c2ccc([N+](=O)[O-])cc2)cc1 (stereo not shown) [C884] | > 100 |  |  |  |  |  |  |  |  | 
O=C(O)c1cccc(N2C(=O)C(O)=C(C(=O)c3ccccc3)C2c2ccc(-c3nccs3)cc2)c1 (stereo not shown) [C897] | 30 to 40 |  |  |  |  |  |  |  |  | 
O=C(C1=C(O)C(=O)N(c2cccc(-c3nnn[nH]3)c2)C1c1ccc([N+](=O)[O-])cc1)c1ccc(Br)cc1 (stereo not shown) [C892] | > 100 |  |  |  |  |  |  |  |  | 
COc1ccc(C(=O)C2=C(O)C(=O)N(c3cccc(C(=O)O)c3)C2c2ccc(C(=O)O)cc2)cc1 (stereo not shown) [C886] | > 100 |  |  |  |  |  |  |  |  | 
COc1ccc(C(=O)C2=C(O)C(=O)N(c3ccc(C(=O)O)cc3)C2c2ccc(C(=O)O)cc2)cc1 (stereo not shown) [C887] | > 100 |  |  |  |  |  |  |  |  | 
COc1ccc(C(=O)C2=C(O)C(=O)N(c3cccc(C(=O)O)c3)C2c2ccc([N+](=O)[O-])cc2)cc1 (stereo not shown) [C883] | > 100 |  |  |  |  |  |  |  |  | 
COc1ccc(C(=O)C2=C(O)C(=O)N(c3cccc(C(=O)O)c3)C2c2ccc(-c3nccs3)cc2)cc1 (stereo not shown) [C900] | > 100 |  |  |  |  |  |  |  |  | 
O=C(C1=C(O)C(=O)N(c2cccc(-c3nnn[nH]3)c2)C1c1ccc(-c2nccs2)cc1)c1ccccc1 (stereo not shown) [C898] | > 100 |  |  |  |  |  |  |  |  | 
O=C(O)c1cccc(N2C(=O)C(O)=C(C(=O)c3ccc(Br)cc3)C2c2ccc([N+](=O)[O-])cc2)c1 (stereo not shown) [C891] | > 100 |  |  |  |  |  |  |  |  | 
O=C(O)c1ccc(N2C(=O)C(O)=C(C(=O)c3ccc(Br)cc3)C2c2ccc(-c3nccs3)cc2)cc1 (stereo not shown) [C899] |  |  |  |  |  |  |  |  |  | IC50 (LIN28–let-7 interaction [2]): > 100 µM
O=C(O)c1ccc(C2C(C(=O)c3ccc(Br)cc3)=C(O)C(=O)N2c2cccc(-c3nnn[nH]3)c2)cc1 (stereo not shown) [C896] | > 100 |  |  |  |  |  |  |  |  | 
O=C(O)c1ccc(C2C(C(=O)c3ccccc3)=C(O)C(=O)N2c2ccc(C(=O)O)cc2)cc1 (stereo not shown) [C882] | > 100 |  |  |  |  |  |  |  |  | 
O=C(O)c1ccc(C2C(C(=O)c3ccc(Br)cc3)=C(O)C(=O)N2c2cccc(C(=O)O)c2)cc1 (stereo not shown) [C894] | > 100 |  |  |  |  |  |  |  |  | 

Reference: publication PMC8201479, “Trisubstituted Pyrrolinones as Small-Molecule Inhibitors Disrupting the Protein–RNA Interaction of LIN28 and Let-7” (ACS Medicinal Chemistry Letters, 2021)
